# Source: patent US11345659B2, “Pipecolic esters for inhibition of the proteasome” (THE BOARD OF REGENTS OF THE UNIVERSY OF TEXAS SYSTEM, priority 2018, dated 2022)
# Key:
# [1] = target: T1, 20 S human housekeeping proteasome (Homo sapiens, UniProt P25787+P25789); assay: ChT-L peptidase activity of 20 S proteasome activated with Rpt5 peptide; assay type: biochemical; settings: tRpt5 added last (compound 3 before tRpt5), n=3
# T1 construct: purified from erythrocytes; purchased Enzo Life Sciences, Inc. (Farmingdale, N.Y.); host or cells: human erythrocytes
# [2] = target: T2, native human 20 S core proteasome (Homo sapiens, UniProt P25787+P25789); assay: AFM imaging of gate conformers of 20 S proteasome
# T2 construct: purified from erythrocytes; purchased Enzo Life Sciences, Inc. (Farmingdale, N.Y.); host or cells: human erythrocytes
# Method: The single molecule imaging of the 20 S proteasome was carried out as previously described, with a scanner E of the Multimode Nanoscope IIIa (Bruker Inc) (Gaczynska and Osmulski (2009) Atomic Force Microscopy as a Tool to Study the Proteasome Assemblies; Osmulski et al. (2009) Structure 17(8): 1137-1147. Available from http://www.scopus.com/inward/record.url?eid=2-s2.0-68149164657&partnerID=40&md5=dc5e413998472b20d822db9458de1955). In short, the proteasomes were deposited and electrostatically attached to a muscovite mica substrate, covered with imaging buffer (5 mM Tris/HCl, pH 7) and scanned in tapping mode in fluid using cantilevers with the spring constant of 0.35 N/m from the SNL (Sharp Nitride Lever) probes (Bruker Inc.) tuned to 9-10 kHz. Gentle scanning conditions with the amplitude setpoint in the range of 1.5-2.0V, drive voltage of 300-500 mV and 3.05 Hz scanning rate were used. Scans of 1 μm^2 fields (512×512 pixels) contained height-mode images of several dozens of top-view (“standing”) 20 S proteasome molecules. The gate status was deduced from a profile of raw height values of pixels measured by a probe scanning across the single proteasome particles. The proteasome a face that included the gate was completely rendered by a six-pixel (11-12 nm) scan-line. If the α face scan-line presented a central dip (a local minimum), the particle was classified as containing the open gate. If a plot of height values presented a concave function without a local minimum, the particle was classified as an intermediate conformer. If the function was convex, the particle was classified as containing the closed gate. The “events” of gate opening/closing were analyzed for scans of distinct particles as well as multiple scans of the same particles.
# Next, AFM imaging of the native human 20 S core proteasome treated with 10 μM compound 3 was performed to get insight into the putative effects of the compound on the conformation of the α face in the single molecule fashion. In the in-liquid tapping mode AFM method, the outer shape of the α face is monitored by the ultra-sharp probe interacting […] with the protein molecule mostly by van der Waals forces (Gaczynska and Osmulski (2008) Methods Cell Biol. 90: 39-60). […] Treatment with 10 μM of rapamycin shifted the conformational equilibrium of the 20 S core from about 75% to about 50% of closed-gate molecules (Osmulski and Gaczynska (2013) Molecular pharmacology 84: 104-113). An apparent similar shift was induced by compound 3, when the partition of closed conformers dropped from 73±1% (n=4 experiments, 90 events of gate opening/closing) to 45±11% (n=6 experiments, 218 events). Moreover, upon additional refined analysis of “not closed” conformers, it was possible to distinguish the presumably open-gate forms from intermediate forms.
# The putative binding site of compound 3 in the α ring pocket, identified by molecular modeling (FIG. 2) and biochemical data (FIG. 4), led to the examination of whether the inhibitor-induced conformational changes in a face gate dynamics. For this purpose, imaging of native 20 S proteasomes was employed using a previously established method of atomic force microscopy (AFM). In this method, topography of the α face of buffer-submerged proteasomes that stand on their opposite a face is rendered in real time by the ultra-sharp probe. A tip of the probe interacts with the molecules mostly by van der Waals forces (Gaczynska and Osmulski (2011) Methods Mol. Biol. 736: 117-32). The distribution of conformation types of a face is routinely accessed with sequential scans of fields of multiply randomly distributed proteasomes. Alternatively, consecutive single scan lines representing the gate status of individual particles are collected. The particles are classified as closed-gate if their a face is smooth and regularly concave (FIG. 5). […]
# [3] = tested on: human prostate cancer PC3 cells; assay: Efficacy study in nude mice xenografted with PC3 cells; assay type: in vivo; settings: 10 mg/kg intra-tumorally
# Method: The efficacy study was performed with mice xenografted with human cultured androgen-resistant prostate cancer PC3 cells. To assure efficient monitoring of tumor growth and dissemination, the cells expressing green fluorescent protein (GFP) and luciferine were used for xenografting (Bioware Brite PC3-RedFLuc-GFP). The study involved […] nude mice. Tumor-growing mice were treated intra-tumorally (IT) with the vehicle (dimethylsulfoxide; DMSO; 8 control mice) or with 10 mg/kg of compound 3 (10 mice). Injections were carried on Mondays, Wednesdays, and Fridays. To assure accurate assessment of the tumor size, at the time of first and last treatments the mice were injected with luciferine (substrate for luciferase) and the total intensity of fluorescent product was recorded by the Xenogen IVIS Spectrum small animal imager. […] The color scale from blue (lowest) through green, yellow and red (highest) corresponds to the intensity of fluorescence emitted from the tumor and thus represents the total mass of live cancer cells. Referring to FIG. 8 right panel, median ratios of last-to-first total tumor fluorescence values are shown. Apparently, the median tumor size in controls increased nearly three-fold (ratio=3.05), whereas in the treated cohort a tumor shrinkage was recorded instead (ratio=0.62).
smiles,measurement,setting,value
"COc1cc(CCCOC(=O)[C@@H]2CCCCN2C(=O)OCc2ccccc2)cc(OC)c1OC [Compound 3, 1-benzyl 2-(3-(3,4,5-trimethoxyphenyl)propyl) (S)-piperidine-1,2-dicarboxylate]",remaining ChT-L activity,[1],56%
same,abundance of gate conformers,[2]; 100 nM,increased the abundance of closed-gate conformers and rendered the open-gate forms nearly undetectable
same,contribution of open-gate proteasomes,[2]; 1 μM,only about a half of that observed in the control particles
same,particles in closed-gate conformation,[2]; 10 μM,less than a half of the particles were in the closed-gate conformation
same,contribution of open-gate and intermediate forms,"[2]; 10 μM, compared to control",increased about twice
same,partition of closed conformers,"[2]; 10 μM, n=6 experiments, 218 events, control 73±1%",45±11%
same,number of intermediate forms,"[2]; 10 μM, versus control",increased significantly
same,partition of open forms,"[2]; 10 μM, versus control",remained remarkably steady
same,growth of xenografted tumor,[3],attenuated the growth of xenografted tumor
same,median ratio of last-to-first total tumor fluorescence,"[3]; Mon/Wed/Fri, control ratio 3.05",0.62
